From patent US20080045507A1, “SUBSTITUTED BENZAMIDE MODULATORS OF THE HISTAMINE H3 RECEPTOR” (priority 2006, published 2008)

Key:
[1] = molecular target: T1, human H3 receptor (Homo sapiens, UniProt Q9Y5N1); assay: H3 receptor binding, cloned human H3 receptor stably expressed in SK-N-MC cells; conditions: average of results
T1 construct: expressed in transfected cells
Method: (§1) Binding of compounds to the cloned human and rat H3 receptors, stably expressed in SK-N-MC cells, was performed as described by Barbier, A. J. et al. (Br. J. Pharmacol. 2004, 143(5), 649-661). Data for compounds tested in these assays are presented in Table 1 (human) and Table 2 (rat), as an average of the results obtained.

[2] = molecular target: T2, rat H3 receptor (Rattus norvegicus, UniProt Q9QYN8); assay: H3 receptor binding, cloned rat H3 receptor stably expressed in SK-N-MC cells; conditions: average of results
T2 construct: expressed in transfected cells
T2 sequence (Q9QYN8 whole entry): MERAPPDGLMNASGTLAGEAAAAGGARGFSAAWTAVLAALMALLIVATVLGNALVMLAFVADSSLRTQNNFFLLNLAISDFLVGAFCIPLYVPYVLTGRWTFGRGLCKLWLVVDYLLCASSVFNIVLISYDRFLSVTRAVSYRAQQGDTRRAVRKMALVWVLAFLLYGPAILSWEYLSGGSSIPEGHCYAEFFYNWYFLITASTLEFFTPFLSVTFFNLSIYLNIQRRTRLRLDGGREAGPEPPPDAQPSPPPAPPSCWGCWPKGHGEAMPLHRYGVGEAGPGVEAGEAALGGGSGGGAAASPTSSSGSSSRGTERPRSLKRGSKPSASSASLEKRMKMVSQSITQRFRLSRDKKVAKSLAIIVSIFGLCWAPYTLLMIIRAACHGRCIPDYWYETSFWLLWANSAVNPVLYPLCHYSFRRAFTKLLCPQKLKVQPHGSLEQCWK
Method: as §1

T1 sequence (Q9Y5N1 whole entry): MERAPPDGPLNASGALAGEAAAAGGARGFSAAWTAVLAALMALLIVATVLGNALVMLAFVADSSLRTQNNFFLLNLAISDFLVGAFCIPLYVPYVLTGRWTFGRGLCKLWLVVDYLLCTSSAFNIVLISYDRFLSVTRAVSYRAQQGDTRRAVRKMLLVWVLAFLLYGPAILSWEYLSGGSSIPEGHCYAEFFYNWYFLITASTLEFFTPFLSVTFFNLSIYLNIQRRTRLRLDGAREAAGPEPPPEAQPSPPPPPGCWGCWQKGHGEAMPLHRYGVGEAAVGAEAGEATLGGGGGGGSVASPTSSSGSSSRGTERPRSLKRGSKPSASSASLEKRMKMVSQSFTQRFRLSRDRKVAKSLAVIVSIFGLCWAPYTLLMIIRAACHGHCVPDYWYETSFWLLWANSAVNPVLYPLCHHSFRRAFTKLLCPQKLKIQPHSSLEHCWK

Row | Ki [1] [nM] | Ki [2] [nM] | SMILES
1 | 4 |  | O=C(c1ccc(C(O)C2CCCCC2)cc1)N1CCN(C2CCC2)CC1 (stereo not drawn) [Example 17, (4-Cyclobutyl-piperazin-1-yl)-[4-(cyclohexyl-hydroxy-methyl)-phenyl]-methanone]
2 | 4 | 205 | CCC(O)c1ccc(C(=O)N2CCCN(C3CC3)CC2)cc1 (stereo not drawn) [Example 31, (4-Cyclopropyl-[1,4]diazepan-1-yl)-[4-(1-hydroxy-propyl)-phenyl]-methanone]
3 | 32 |  | CCC(O)c1ccc(C(=O)N2CCN(C(C)C)CC2)cc1 (stereo not drawn) [Example 2, [4-(1-Hydroxy-propyl)-phenyl]-(4-isopropyl-piperazin-1-yl)-methanone]
4 | 31 |  | CCCc1ccc(C(=O)N2CCN(C3CCC3)CC2)cc1 [Example 38, (4-Cyclobutyl-piperazin-1-yl)-(4-propyl-phenyl)-methanone]
5 | 84 |  | CC(C)C(O)c1ccc(C(=O)N2CCN(C3CC3)CC2)cc1 (stereo not drawn) [Example 26, (4-Cyclopropyl-piperazin-1-yl)-[4-(1-hydroxy-2-methyl-propyl)-phenyl]-methanone]
6 | 2 |  | O=C(c1ccc(CO)cc1)N1CCCN(C2CCC2)CC1 [Example 23, (4-Cyclobutyl-[1,4]diazepan-1-yl)-(4-hydroxymethyl-phenyl)-methanone]
7 | 55 |  | CCCCN1CCN(C(=O)c2ccc(CO)cc2)CC1 [Example 50, (4-Butyl-piperazin-1-yl)-(4-hydroxymethyl-phenyl)-methanone]
8 | 31 |  | CC(C)N1CCCN(C(=O)c2ccc(CO)cc2)CC1 [Example 8, (4-Hydroxymethyl-phenyl)-(4-isopropyl-[1,4]diazepan-1-yl)-methanone]
9 | 58 |  | CC(O)c1ccc(C(=O)N2CCN(C(C)C)CC2)cc1 (stereo not drawn) [Example 4, [4-(1-Hydroxy-ethyl)-phenyl]-(4-isopropyl-piperazin-1-yl)-methanone]
10 | 221 |  | CCC(O)c1ccc(C(=O)N2CCN(C3CC3)CC2)cc1 (stereo not drawn) [Example 48, (4-Cyclopropyl-piperazin-1-yl)-[4-(1-hydroxy-propyl)-phenyl]-methanone]
11 | 11 |  | CC(C)c1ccc(C(=O)N2CCN(C3CCC3)CC2)cc1 [Example 35, (4-Cyclobutyl-piperazin-1-yl)-(4-isopropyl-phenyl)-methanone]
12 | 1 |  | O=C(c1ccc(C(O)C2CCCCC2)cc1)N1CCCN(C2CCC2)CC1 (stereo not drawn) [Example 20, (4-Cyclobutyl-[1,4]diazepan-1-yl)-[4-(cyclohexyl-hydroxy-methyl)-phenyl]-methanone]
13 | 15 |  | CC(C)C(O)c1ccc(C(=O)N2CCN(C3CCC3)CC2)cc1 (stereo not drawn) [Example 16, (4-Cyclobutyl-piperazin-1-yl)-[4-(1-hydroxy-2-methyl-propyl)-phenyl]-methanone]
14 | 17 |  | CC(O)c1ccc(C(=O)N2CCCN(C(C)C)CC2)cc1 (stereo not drawn) [Example 12, [4-(1-Hydroxy-ethyl)-phenyl]-(4-isopropyl-[1,4]diazepan-1-yl)-methanone]
15 | 4 |  | O=C(c1ccc(C(O)c2ccccc2)cc1)N1CCN(C2CCC2)CC1 (stereo not drawn) [Example 14, (4-cyclobutyl-piperazin-1-yl)-[4-(hydroxy-phenyl-methyl)-phenyl]-methanone]
16 | 43 |  | O=C(c1ccc(CO)cc1)N1CCN(C2CCC2)CC1 [Example 18, (4-Cyclobutyl-piperazin-1-yl)-(4-hydroxymethyl-phenyl)-methanone]
17 | 24 |  | CCCCc1ccc(C(=O)N2CCN(C3CCC3)CC2)cc1 [Example 39, (4-Butyl-phenyl)-(4-cyclobutyl-piperazin-1-yl)-methanone]
18 | 7 |  | O=C(c1ccc(C2(O)CCCCC2)cc1)N1CCN(C2CCC2)CC1 [Example 42, (4-Cyclobutyl-piperazin-1-yl)-[4-(1-hydroxy-cyclohexyl)-phenyl]-methanone]

Row | Ki [1] [nM] | Ki [2] [nM] | SMILES
19 | 12 |  | CCC(O)c1ccc(C(=O)N2CCN(C3CCC3)CC2)cc1 (stereo not drawn) [Example 15, (4-Cyclobutyl-piperazin-1-yl)-[4-(1-hydroxy-propyl)-phenyl]-methanone]
20 | 19 |  | O=C(c1ccc(C(O)C2CCCCC2)cc1)N1CCN(C2CC2)CC1 (stereo not drawn) [Example 24, [4-(Cyclohexyl-hydroxy-methyl)-phenyl]-(4-cyclopropyl-piperazin-1-yl)-methanone]
21 | 59 |  | O=C(c1ccc(C(O)c2ccccc2)cc1)N1CCN(C2CC2)CC1 (stereo not drawn) [Example 25, (4-Cyclopropyl-piperazin-1-yl)-[4-(hydroxy-phenyl-methyl)-phenyl]-methanone]
22 | 20 |  | O=C(c1ccc(CO)cc1)N1CCCN(C2CC2)CC1 [Example 28, (4-Cyclopropyl-[1,4]diazepan-1-yl)-(4-hydroxymethyl-phenyl)-methanone]
23 | 28 |  | CCc1ccc(C(=O)N2CCN(C3CCC3)CC2)cc1 [Example 34, (4-Cyclobutyl-piperazin-1-yl)-(4-ethyl-phenyl)-methanone]
24 | 586 |  | O=C(c1ccc(CO)cc1)N1CCN(C2CC2)CC1 [Example 49, (4-Cyclopropyl-piperazin-1-yl)-(4-hydroxymethyl-phenyl)-methanone]
25 | 7 |  | O=C(c1ccc(Cc2ccccc2)cc1)N1CCN(C2CCC2)CC1 [Example 37, (4-Benzyl-phenyl)-(4-cyclobutyl-piperazin-1-yl)-methanone]
26 | 6 |  | CC(C)C(O)c1ccc(C(=O)N2CCN(C(C)C)CC2)cc1 (stereo not drawn) [Example 5, [4-(1-Hydroxy-2-methyl-propyl)-phenyl]-(4-isopropyl-piperazin-1-yl)-methanone]
27 | 1 |  | CC(C)C(O)c1ccc(C(=O)N2CCCN(C3CCC3)CC2)cc1 (stereo not drawn) [Example 22, (4-Cyclobutyl-[1,4]diazepan-1-yl)-[4-(1-hydroxy-2-methyl-propyl)-phenyl]-methanone]
28 | 17 |  | CCCCCc1ccc(C(=O)N2CCN(C3CCC3)CC2)cc1 [Example 40, (4-Cyclobutyl-piperazin-1-yl)-(4-pentyl-phenyl)-methanone]
29 | 530 |  | CCC(C)N1CCN(C(=O)c2ccc(CO)cc2)CC1 (stereo not drawn) [Example 51, (4-sec-Butyl-piperazin-1-yl)-(4-hydroxymethyl-phenyl)-methanone]
30 | 6 |  | CC(C)C(O)c1ccc(C(=O)N2CCCN(C(C)C)CC2)cc1 (stereo not drawn) [Example 13, [4-(1-Hydroxy-2-methyl-propyl)-phenyl]-(4-isopropyl-[1,4]diazepan-1-yl)-methanone]
31 | 14 |  | CC(C)N1CCN(C(=O)c2ccc(C(O)c3ccccc3)cc2)CC1 (stereo not drawn) [Example 3, [4-(Hydroxy-phenyl-methyl)-phenyl]-(4-isopropyl-piperazin-1-yl)-methanone]
32 | 1 |  | O=C(c1ccc(C(O)c2ccccc2)cc1)N1CCCN(C2CCC2)CC1 (stereo not drawn) [Example 21, (4-Cyclobutyl-[1,4]diazepan-1-yl)-[4-(hydroxy-phenyl-methyl)-phenyl]-methanone]
33 | 32 |  | CC(C)(O)c1ccc(C(=O)N2CCN(C3CCC3)CC2)cc1 [Example 41, (4-Cyclobutyl-piperazin-1-yl)-[4-(1-hydroxy-1-methyl-ethyl)-phenyl]-methanone]
34 | 7 |  | CC(C)N1CCN(C(=O)c2ccc(C(O)C3CCCCC3)cc2)CC1 (stereo not drawn) [Example 1, [4-(Cyclohexyl-hydroxy-methyl)-phenyl]-(4-isopropyl-piperazin-1-yl)-methanone]
35 | 3 |  | CC(C)N1CCCN(C(=O)c2ccc(C(=O)C3CCCCC3)cc2)CC1 [Example 9, (4-Cyclohexanecarbonyl-phenyl)-(4-isopropyl-[1,4]diazepan-1-yl)-methanone]
